How the values were obtained:
[1] = target: T1, Vascular endothelial growth factor receptor 2 (Homo sapiens, UniProt P35968)
[2] = target: T1, Vascular endothelial growth factor receptor 2; remark: listed apart in the source
Description: Inhibition of human N-terminal His-tagged phosphorylated VEGFR2 assessed as dissociation half life after 60 mins by ligand displacement based enzyme-inhibitor dilution assay

[3] = target: T1, Vascular endothelial growth factor receptor 2; remark: listed apart in the source
[4] = target: T1, Vascular endothelial growth factor receptor 2; remark: listed apart in the source
Description: Inhibition of human N-terminal His-tagged non-phosphorylated VEGFR2 assessed as dissociation half life after 60 mins by ligand displacement based enzyme-inhibitor dilution assay

[5] = target: T1, Vascular endothelial growth factor receptor 2; test: Inhibition of human N-terminal His-tagged non-phosphorylated VEGFR2 after 10 mins by Global fit analysis
[6] = target: T1, Vascular endothelial growth factor receptor 2; test: Inhibition of human N-terminal His-tagged phosphorylated VEGFR2 in presence of ATP measured without preincubation by AlphaScreen analysis
[7] = target: T1, Vascular endothelial growth factor receptor 2; test: Inhibition of human N-terminal His-tagged non-phosphorylated VEGFR2 after 60 mins by ligand displacement based enzyme-inhibitor dilution assay
[8] = target: T1, Vascular endothelial growth factor receptor 2; remark: listed apart in the source
Description: Binding affinity to human N-terminal His-tagged non-phosphorylated VEGFR2 assessed as association constant by surface plasmon resonance analysis

[9] = target: T1, Vascular endothelial growth factor receptor 2; remark: listed apart in the source
Description: Inhibition of human N-terminal His-tagged non-phosphorylated VEGFR2 assessed as dissociation half life

[10] = target: T1, Vascular endothelial growth factor receptor 2; test: Inhibition of human N-terminal His-tagged non-phosphorylated VEGFR2 after 60 mins by activity based 100 fold dilution assay
[11] = target: T1, Vascular endothelial growth factor receptor 2; test: Inhibition of human N-terminal His-tagged non-phosphorylated VEGFR2 in presence of ATP measured without preincubation by AlphaScreen analysis
[12] = target: T1, Vascular endothelial growth factor receptor 2; test: Binding affinity to human N-terminal His-tagged non-phosphorylated VEGFR2 assessed as dissociation rate constant by surface plasmon resonance analysis
[13] = target: T1, Vascular endothelial growth factor receptor 2; test: Inhibition of human N-terminal His-tagged phosphorylated VEGFR2 preincubated for 120 mins in presence of ATP by AlphaScreen analysis
[14] = target: T1, Vascular endothelial growth factor receptor 2; test: Binding affinity to human N-terminal His-tagged non-phosphorylated VEGFR2 by surface plasmon resonance analysis
[15] = target: T1, Vascular endothelial growth factor receptor 2; test: Inhibition of human N-terminal His-tagged non-phosphorylated VEGFR2 preincubated for 120 mins in presence of ATP by AlphaScreen analysis

T1 sequence (P35968 whole entry): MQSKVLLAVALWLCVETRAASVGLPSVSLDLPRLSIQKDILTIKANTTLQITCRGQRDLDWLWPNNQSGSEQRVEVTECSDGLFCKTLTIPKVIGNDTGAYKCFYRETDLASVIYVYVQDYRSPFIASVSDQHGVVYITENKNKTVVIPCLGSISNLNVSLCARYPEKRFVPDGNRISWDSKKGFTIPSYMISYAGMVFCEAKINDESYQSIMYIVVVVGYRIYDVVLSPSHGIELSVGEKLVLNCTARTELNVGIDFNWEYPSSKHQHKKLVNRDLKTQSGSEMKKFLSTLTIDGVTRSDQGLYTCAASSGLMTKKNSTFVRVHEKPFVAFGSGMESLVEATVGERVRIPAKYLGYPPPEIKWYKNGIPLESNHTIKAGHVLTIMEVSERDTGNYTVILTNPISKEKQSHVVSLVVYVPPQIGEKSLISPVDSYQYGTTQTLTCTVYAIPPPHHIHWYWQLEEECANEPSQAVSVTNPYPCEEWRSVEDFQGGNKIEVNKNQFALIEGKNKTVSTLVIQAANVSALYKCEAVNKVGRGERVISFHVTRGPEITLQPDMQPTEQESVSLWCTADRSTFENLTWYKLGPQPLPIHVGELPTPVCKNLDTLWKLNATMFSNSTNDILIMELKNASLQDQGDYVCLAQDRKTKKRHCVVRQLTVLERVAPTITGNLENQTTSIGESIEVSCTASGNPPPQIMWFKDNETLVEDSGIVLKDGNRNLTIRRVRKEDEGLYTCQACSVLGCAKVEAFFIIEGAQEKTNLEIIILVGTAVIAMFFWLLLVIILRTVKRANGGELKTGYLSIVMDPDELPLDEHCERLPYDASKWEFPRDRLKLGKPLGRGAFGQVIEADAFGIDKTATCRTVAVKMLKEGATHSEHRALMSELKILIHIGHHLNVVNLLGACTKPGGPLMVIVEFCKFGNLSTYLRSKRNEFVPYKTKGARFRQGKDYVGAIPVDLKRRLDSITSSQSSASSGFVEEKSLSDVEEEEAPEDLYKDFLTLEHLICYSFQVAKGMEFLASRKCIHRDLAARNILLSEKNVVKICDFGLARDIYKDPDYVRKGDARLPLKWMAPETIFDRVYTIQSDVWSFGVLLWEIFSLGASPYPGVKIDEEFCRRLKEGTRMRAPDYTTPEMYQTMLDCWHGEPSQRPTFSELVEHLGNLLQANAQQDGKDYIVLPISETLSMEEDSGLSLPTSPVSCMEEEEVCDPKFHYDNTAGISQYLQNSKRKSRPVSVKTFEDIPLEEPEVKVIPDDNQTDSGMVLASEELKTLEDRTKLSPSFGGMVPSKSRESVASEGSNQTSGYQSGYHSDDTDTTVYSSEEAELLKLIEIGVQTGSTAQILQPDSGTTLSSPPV

Compound | T1/2 [1] | T1/2 [2] | T1/2 [3] | T1/2 [4] | Ki [5] | IC50 [6] | Ki [6] | Ki [7] | Ka [8] | T1/2 [9] | Ki [10] | IC50 [11] | koff [12] | IC50 [13] | Kd [14] | IC50 [15]
CN[C@@H]1C[C@H]2O[C@@](C)([C@@H]1OC)n1c3ccccc3c3c4c(c5c6ccccc6n2c5c31)C(=O)NC4 | < 5 min | < 5 min | < 5 min | < 5 min | – | – | – | – | – | – | – | – | – | – | – | –
Cn1ccc2ncnc(Oc3ccc(NC(=O)Nc4cccc(C(F)(F)F)c4)c(F)c3)c21 | < 5 min | < 5 min | 260 min | 130 min | 4.6 nM | 46 nM | 23 nM | 0.044 nM | 1.6 ×10⁵ /M/s | 1.3 min | 0.024 nM | 4.7 nM | 0.0031 s⁻¹ | 14 nM | 19 nM | 0.033 nM

— ChEMBL document CHEMBL1817643, “Biochemical characterization of a novel type-II VEGFR2 kinase inhibitor: comparison of binding to non-phosphorylated and phosphorylated VEGFR2” (Bioorg Med Chem, 2011)
